Like-named read-outs stand apart in the source and are kept apart here.

One data set has as its system patients with gout. Description: Preliminary human trial of preparation: crystal dissolution of gout crystals. It is filed as in vivo. The protocol: The prepared nano liniment was applied to some patients with gout on trial. The gout treatment effect was obvious. The local application dosage was far below the dosage of the same oral medicine. The total dosage was safe.
Method of application: the nano liniment was applied to the gout parts (most foot joints, some hand joints or other parts) twice a day (every morning and evening), 1 ml of the corresponding nano liniment was applied every time, the gout (crystal) parts were photographed at different points in time before and after the nano liniment was applied, and the blood uric acid concentration (i.e. the uric acid value under fasting) of some patients with obvious crystal dissolution and lump elimination was also determined as a reference.

For data set [1] the following is noted: cited from earlier work; for cardiovascular and cerebrovascular and all-cause mortality: oral administration, statistic average period of 1 year.

With `OCc1ccc(O[C@@H]2O[C@H](CO)[C@@H](O)[C@H](O)[C@H]2O)cc1` [4-hydroxymethyl phenyl-beta-D-glucopyranoside], the analgesic effect entry in the data set with patients with gout (finding of the study, gout) is reported as “good analgesic effect”. The gout treatment effect result with patients with gout (patients with gout on trial) is reported as “good treatment effect on gout”.

For the compound `Oc1ncnc2[nH]ncc12` [Allopurinol], the results for the “cardiovascular and cerebrovascular and all-cause mortality” value in data set [1] and in data set [1] (listed as allopurinol) were “mortality reaches up to 3.3%)” and 3.3%, respectively.

Regarding `Cc1nc(-c2ccc(OCC(C)C)c(C#N)c2)sc1C(=O)O` [Febuxostat], the “cardiovascular and cerebrovascular and all-cause mortality” value in data set [1] is listed as “reaches up to 4.1%)”; in data set [1] (listed as febuxostat), 4.1%.

`N#Cc1cc(-c2n[nH]c(-c3ccncc3)n2)ccn1` [Topiroxostat]: the Side effects entry in data set [1] (oral tablet, marketed gout medicine) is “effect on the liver and bile”.

The values are drawn from patent US12539273B2, “External nano liniment for gout and preparation method thereof” (priority 2021, dated 2026).
